Legend:
Assay type in all cases: in vitro ADME
[1] = Plasma protein binding, equilibrium dialysis (rat); conditions: pH 7.4, equilibrium dialysis 6 hours, read-out: PPB (rat), percent of unbound fraction
Procedure: Preparation of 100 mM sodium phosphate and 150 mM NaCl buffer (PBS). A basic solution was prepared by dissolving 14.2 g/L Na2HPO4 and 8.77 g/L NaCl in deionized water and the solution could be stored at 4° C. for up to 7 days. An acidic solution was prepared by dissolving 12.0 g/L NaH2PO4 and 8.77 g/L NaCl in deionized water and the solution could be stored at 4° C. for up to 7 days. The basic solution was titrated with the acidic solution to pH 7.4 and store at 4° C. for up to 7 days. pH was checked on the day of experiment and was adjusted if outside specification of 7.4±0.1.
Thawing of the frozen plasma (stored at −80° C.). Frozen plasma was thawed immediately at room temperature. The plasma was centrifuged at 3,220 g for 10 minutes to remove clots and supernatant was collected into a fresh tube. The pH of the plasma was checked and recorded. Note: a). Only use plasma that has been thawed no more than twice since arrival. b). Only use plasma within the range of pH 7 to pH 8.
Preparation of working solutions. The working solutions of test compound and control compound ketoconazole were prepared in DMSO at the concentration of 200 μM. And then 3 μL of working solutions was removed to mix with 597 μL of rat plasma to achieve a final concentration of 1 μM (0.5% DMSO). Plasma samples were vortexed thoroughly.
Preparation of dialysis membranes. The dialysis membranes were soaked in ultrapure water for 60 minutes to separate strips, then in 20% ethanol for 20 minutes, finally in dialysis buffer for 20 minutes.
Procedure for equilibrium dialysis. The dialysis apparatus was assembled according to the manufacturer's instruction. Each Cell was filled with 120 μL of spiked plasma sample and dialyzed against equal volume of dialysis buffer (PBS). The assay was performed in duplicate. The dialysis plate was sealed and incubated in an incubator at 37° C. with 5% CO2 at 100 rpm for 6 hours. At the end of incubation, seal was removed and 50 μL of samples from both buffer and plasma chambers were transferred to wells of a 96-well plate.
Procedure for sample preparation. […]

[2] = Hepatocyte stability (rat); conditions: 0.5×10^6 viable cells/mL
Procedure: (§1) 10 mM and 100 μM stock solutions of test compound(s) and a positive control were prepared in appropriate solvent (DMSO). In separate conical tubes, the 10 mM test compound and the positive control were diluted to 100 μM by combining 198 μL of 50% acetonitrile/50% water and 2 μL of 10 mM stock. The 100 μM test compound and the positive control were diluted to 30 μM by combining 140 μL of 50% acetonitrile/50% water and 60 μL of 100 μM stock solution. The 100 μM test compound and the positive control were diluted to 10 μM by combining 180 μL of 50% acetonitrile/50% water and 20 μL of 100 μM stock solution. The 100 μM test compound and the positive control were diluted to 3 μM by combining 194 μL of 50% acetonitrile/50% water and 6 μL of 100 μM stock solution.
(§2) Incubation medium (William's E Medium supplemented with GlutaMAX) and hepatocyte thawing medium was placed in a 37° C. water bath, and allowed to warm for at least 15 minutes prior to use. A vial of cryopreserved hepatocytes from storage was then removed, ensuring that the vial remains at cryogenic temperatures until thawing process ensues. Cells were thawed by placing the vial in a 37° C. water bath and gently shaking the vial for 2 minutes. After thawing was completed, the vial was sprayed with 70% ethanol and transferred to a biosafety cabinet.
(§3) A wide-bore pipette tip was used to transfer hepatocytes into 50 mL conical tube containing thawing medium. The 50 mL conical tube was placed into a centrifuge and spun at 100 g for 10 minutes. Upon completion of spin, the thawing medium was aspirated and the hepatocytes were resuspended in enough incubation medium to yield ˜1.5×10^6 cells/mL.
(§4) Using AOPI staining solution, cells were counted and the viable cell density was determined. Cells with poor viability (<75% viability) are not acceptable for use. […]
(§5) All calculations were carried out using Microsoft Excel. Peak areas were determined from extracted ion chromatograms. […]
(§6) The in vitro half-life (in vitro t1/2) was determined from the slope value: in vitro t1/2=0.693/k

[3] = Hepatocyte stability (human); conditions: 0.5×10^6 viable cells/mL
Procedure: as §1, §2, §3, §4, §5, §6

SMILES | fraction unbound at 6 h, 1 μM [1] | Hepatocyte stability, Rat [2] | Hepatocyte stability, Human [3]
CC(C)(C)NC[C@H](O)c1cccc(C(F)(F)F)n1 [Compound 03-3] | 0.9 | 4.59 μL/min/10^6 cells | 0.9 μL/min/10^6 cells
CC(C)(C)NC[C@H](O)c1cccc(C#N)n1 [Compound 03-5, (S)-6-(2-(tert-butylamino)-1-hydroxyethyl)picolinonitrile] | 1 | 3.54-4.62 μL/min/10^6 cells | 0.36-0.59 μL/min/10^6 cells
Cc1ncccc1[C@@H](O)CNC(C)(C)C [Compound 03-115] | 0.97 | 20.61 μL/min/10^6 cells | 0.32 μL/min/10^6 cells

From patent US10947196B2, “Beta adrenergic agonist and methods of using the same” (CURASEN THERAPEUTICS, INC., priority 2019, dated 2021)
